Test results as given in patent US11464867B2, “Multimeric elastin-like polypeptides” (University of Southern California, priority 2018, dated 2022).
Like-named read-outs stand apart in the source and are kept apart here.

Assays:
[1] = CsA encapsulation by two-phase solvent evaporation, RP-HPLC; format: physicochemical; details: FIG. 16
Method: The mixture was incubated at 37° C. and samples were collected at different time points up to 48 h.
This was followed by high-speed centrifugation and filtration to remove the excess insoluble drug. […] The mobile phase flow rate was set to 1.0 ml/min. The linear gradient from 20% to 95% of methanol was applied from 0 to 5 min. Then the mobile phase was changed to 95% methanol isocratic flow for 10 min.
This was followed by high-speed centrifugation and filtration to remove the excess insoluble drug. The loading ratio was then determined by reversed-phase high-performance liquid chromatography (RP-HPLC) analysis method.
The drug loading capability of 2nd and 3rd generation carriers were also tested using the same encapsulation method detailed above employing the method of Shi, et al., 2013.

[2] = Phase transition temperature by optical density (UV-Vis, 350 nm) versus temperature; format: physicochemical; details: 25 μM; Table 5
Method: The temperature with the maximum positive slope was defined as the phase transition temperature for each condition. (FIG. 2B) The concentration-temperature phase diagram was determined for both ELPs, and fit to the following equation: Tt=b−m Log10[CELP].
Both ELPs at different concentrations (5 μM to 100 μM) were subject to a precisely controlled temperature increase from 25 to 75° C. at a rate of 1° C./min. The Tt of ELPs is defined as the temperature at which the first derivative of the optical density with respect to the temperature reaches a maximum.

[3] = Isothermal titration calorimetry of 5FA/Rapa interaction; format: binding; details: ITC
From the text: Using Isothermal Titration calorimetry (ITC), the binding stoichiometry of 5FA/Rapa interaction was estimated to be 5. […] An overall negative Gibbs free energy (−10 kJ/mol interactions) indicates FKBP/Rapa binding is thermodynamically favorable.

[4] = cited from earlier work
Pin1 = Pin1 (Homo sapiens, UniProt Q13526); details: cited from earlier work
[5] = test system: IL-2 secretion, Jurkat cells; experiment: IL-2 secretion assay in activated Jurkat cells (ELISA); format: cell-based; details: Homo sapiens, n=3, mean±SD
Method: Upon stimulation, Jurkat cells produce IL-2.
IL-2 concentration in culture media is then assessed using ELISA assay.

[6] = Multivariate fit of the phase diagram of ELP monoblock copolymers; format: physicochemical
From the text: The Tt of the ELP component can be modified by varying ELP chain length, as the Tt generally increases with decreasing MW. For polypeptides having a molecular weight >100,000, the hydrophobicity scale developed by Urry et al. (PCT/US96/05186, which is hereby incorporated by reference in its entirety) is preferred for predicting the approximate Tt of a specific ELP sequence. However, in some embodiments, ELP component length can be kept relatively small, while maintaining a target Tt, by incorporating a larger fraction of hydrophobic guest residues (e.g., amino acid residues having hydrophobic side chains) in the ELP sequence. For polypeptides having a molecular weight <100,000, the Tt may be predicted or determined by the following function:
[formula] where Tc is a critical transition temperature, m is the dependence on the natural logarithm of concentration, n is the dependence on the inverse of the ELP length l, and k is an interaction term between length and concentration.

Chain of Pin1 (Q13526 whole entry): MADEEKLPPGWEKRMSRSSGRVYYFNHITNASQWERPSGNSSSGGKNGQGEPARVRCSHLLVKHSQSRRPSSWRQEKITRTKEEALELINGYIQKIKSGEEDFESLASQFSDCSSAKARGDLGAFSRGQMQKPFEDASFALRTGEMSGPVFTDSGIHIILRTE

3(CA)C: 3rd generation carrier CypA-A24-CypA-A24-CypA-A24-CypA, SEQ ID NO: 9
CsA loading ratio [1]: 209.0%

5FA: 5 FKBP domains linked by ELP A24, SEQ ID NO: 10
Transition temperature at 25 μM [2]: 53.2 °C | Gibbs free energy [3]: −10 kJ/mol interactions | TAS [3]: −48 kJ/mol interactions | binding enthalpy [3]: −58 kJ/mol interactions | Kd ([3]; true KD likely lower, beyond limit of detection, read-out: equilibrium dissociation constant (KD)): ≤ 1.5 nM

5FV: 5 FKBP domains linked by ELP V24, SEQ ID NO: 11
Transition temperature at 25 μM [2]: 27.7 °C

CC1=C(/C=C/C(C)=C/C=C/C(C)=C/C(=O)O)C(C)(C)CCC1 [ATRA, All trans retinoic acid]
AUC on 28th day of administration relative to AUC on day 1 ([4]; daily treatment): 10% | half-life ([4]; in vivo): 45 min | affinity to Pin1 (Pin1): sun-micromolar affinity

C/C=C/C[C@@H](C)[C@@H](O)[C@H]1C(=O)N[C@@H](CC)C(=O)N(C)CC(=O)N(C)[C@@H](CC(C)C)C(=O)N[C@@H](C(C)C)C(=O)N(C)[C@@H](CC(C)C)C(=O)N[C@@H](C)C(=O)N[C@H](C)C(=O)N(C)[C@@H](CC(C)C)C(=O)N(C)[C@@H](CC(C)C)C(=O)N(C)[C@@H](C(C)C)C(=O)N1C [CsA, Cyclosporin A]
IC50 ([5]; PMA and Ionomycin, 6 h, read-out: IC50, IL-2 secretion assay): 0.522 ± 0.152 nM | IC50 ([5]; FIG. 10 legend, read-out: IC50, IL-2 inhibition): 0.522 ± 0.152 nM

(Val-Pro-Gly-Ala-Gly): ELP monoblock library, SEQ ID NO: 61 (VPGAG)
Tc ([6]; critical transition temperature): 40.5 ± 1.6 °C | n ([6]; dependence on inverse of ELP length): 7009 ± 345 °C pentamers | m ([6]; dependence on natural logarithm of concentration): 0 ° C./ln(μM) | K ([6]; interaction term between length and concentration): −850.1 ± 51.5 °C pentamers/ln(μM)
